Patent US7632845B2, “Phenyl quinolines and their use as estrogenic agents” (Wyeth, priority 2003, dated 2009)
pIC50: −log10 of the molar value.

How the values were obtained:
ERβ = biological target: T1, ERβ (Homo sapiens, UniProt Q92731); assay: Competition with [3H]-17β-estradiol for ERβ ligand binding domain; settings: for pIC50: crude E. coli lysate expressing human ERβ LBD (D, E, & F), 2 nM [3H]-17β-estradiol, 5-15 hours at room temperature; for α/β: receptor selectivity, ratio ERα IC50 / ERβ IC50
T1 construct: made in house; host or cells: E. coli
Description: (§1) Representative examples of the invention were evaluated for their ability to compete with 17β-estradiol for both ERα and ERβ. This test procedure provides the methodology for one to determine whether a particular compound binds to the estrogen receptor (and is therefore “estrogenic”) and whether there is selectivity for ERα or ERβ. […] 17β-estradiol is included as a standard reference for compalison. The procedure used is briefly described below. A crude lysate of E. coli expressing the estrogen receptor ligand binding domains (D, E, & F) of human ERα or ERβ was prepared. Both receptors and compounds were diluted in 1× Dulbecco's PBS (DPBS) supplemented with 1 mM EDTA. Using a high binding masked microtiter plate, 100 uL of receptor (1 uG/well) was combined with 2 nM [^3H]-17β-estradiol and various concentrations of compound. After between 5 and 15 hours at room temperature, the plates were washed with DPBS/1 mM EDTA and bound radioactivity determined by liquid scintillation counting.

ERα = biological target: T2, ERα (Homo sapiens, UniProt P03372); assay: Competition with [3H]-17β-estradiol for ERα ligand binding domain; settings: crude E. coli lysate expressing human ERα LBD (D, E, & F); 2 nM [3H]-17β-estradiol; 5-15 hours at room temperature
T2 construct: made in house; host or cells: E. coli
T2 sequence (P03372 311-547 limits assumed): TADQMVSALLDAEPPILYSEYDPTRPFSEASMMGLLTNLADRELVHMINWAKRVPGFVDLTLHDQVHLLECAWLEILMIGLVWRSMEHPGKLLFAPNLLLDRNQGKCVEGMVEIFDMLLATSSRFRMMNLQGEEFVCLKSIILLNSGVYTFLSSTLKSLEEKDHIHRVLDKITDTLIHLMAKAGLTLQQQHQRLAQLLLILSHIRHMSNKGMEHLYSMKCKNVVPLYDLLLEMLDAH
Description: as §1

T1 sequence (Q92731 264-498 limits assumed): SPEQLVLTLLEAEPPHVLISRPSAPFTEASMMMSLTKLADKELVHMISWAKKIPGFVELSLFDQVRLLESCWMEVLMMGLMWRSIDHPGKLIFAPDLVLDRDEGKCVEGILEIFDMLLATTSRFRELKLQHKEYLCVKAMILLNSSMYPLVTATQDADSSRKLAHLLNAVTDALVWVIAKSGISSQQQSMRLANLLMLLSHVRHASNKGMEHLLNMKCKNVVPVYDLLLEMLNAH

pIC50 (ERβ)	α/β (ERβ)	pIC50 (ERα)	SMILES
7.68	14	6.52	CCCCC#Cc1cc(-c2ccc(O)c(F)c2)nc2c(Cl)cc(O)cc12 [Cpd 49, 8-Chloro-2-(3-fluoro-4-hydroxyphenyl)-4-hex-1-ynylquinolin-6-ol]
9.02	79	7.12	C=Cc1cc(-c2ccc(O)c(F)c2)nc2c(Cl)cc(O)cc12 [Cpd 50, 8-Chloro-2-(3-fluoro-4-hydroxyphenyl)-4-vinylquinolin-6-ol]
7.43	56	5.69	N#Cc1ccc(-c2cc(-c3ccc(O)c(F)c3)nc3c(Cl)cc(O)cc23)cc1 [Cpd 51, 8-Chloro-4-(4-cyanophenyl)-2-(3-fluoro-4-hydroxyphenyl)quinolin-6-ol]
7.89	15	6.71	COc1ccc(-c2cc(-c3ccc(O)c(F)c3)nc3c(Cl)cc(O)cc23)cc1 [Cpd 52, 8-Chloro-2-(3-fluoro-4-hydroxyphenyl)-4-(4-methoxyphenyl)quinolin-6-ol]
8.96	105	6.94	N#Cc1cc(O)cc2c(Cl)cc(-c3ccc(O)c(F)c3)nc12 [Cpd 56, 4-Chloro-8-cyano-2-(3-fluoro-4-hydroxyphenyl)quinolin-6-ol]
8.85	61	7.07	N#Cc1cc(O)cc2c(Br)cc(-c3ccc(O)c(F)c3)nc12 [Cpd 57, 4-Bromo-8-cyano-2-(3-fluoro-4-hydroxyphenyl)quinolin-6-ol]
8.89	67	7.06	C#Cc1cc(-c2ccc(O)c(F)c2)nc2c(C#N)cc(O)cc12 [Cpd 58, 8-Cyano-4-ethynyl-2-(3-fluoro-4-hydroxyphenyl)quinolin-6-ol]
7.89	40	6.28	N#Cc1ccc(-c2cc(O)cc3c(Cl)cc(-c4ccc(O)c(F)c4)nc23)cc1 [Cpd 61, 4-Chloro-8-(4-cyanophenyl)-2-(3-fluoro-4-hydroxyphenyl)quinolin-6-ol]
